# Results: US7635716B2, “Substituted cyclopentanes or cyclopentanones as therapeutic agents” (Allergan, Inc., priority 2005, dated 2009)
# Where two headings read alike, the source gives them in different places.
# Columns and labels:
# hEP4/Gqs5 = target: T1, hEP4/Gqs5 (Homo sapiens, UniProt P35408); assay: FLIPR calcium signal, HEK-293(EBNA) cells; format: cell-based
# T1 construct: expressed in transfected cells; host or cells: HEK-293(EBNA) cells
# Experimental: (§1) HEK-293(EBNA) cells, stably expressing one type or subtype of recombinant human prostaglandin receptors (prostaglandin receptors expressed: hDP/Gqs5; hEP1; hEP2/Gqs5; hEP3A/Gqi5; hEP4/Gqs5; hFP; hIP; hTP), were cultured in 100 mm culture dishes in high-glucose DMEM medium containing 10% fetal bovine serum, 2 mM 1-glutamine, 250 μg/ml geneticin (G418) and 200 μg/ml hygromycin B as selection markers, and 100 units/ml penicillin G, 100 μg/ml streptomycin and 0.25 μg/ml amphotericin B.
# (§2) Cells were seeded at a density of 5×10^4 cells per well in Biocoat® Poly-D-lysine-coated black-wall, clear-bottom 96-well plates (Becton-Dickinson) and allowed to attach overnight in an incubator at 37° C. Cells were then washed two times with HBSS-HEPES buffer (Hanks Balanced Salt Solution without bicarbonate and phenol red, 20 mM HEPES, pH 7.4) using a Denley Cellwash plate washer (Labsystems). After 45 minutes of dye-loading in the dark, using the calcium-sensitive dye Fluo-4 AM at a final concentration of 2 μM, plates were washed four times with HBSS-HEPES buffer to remove excess dye leaving 100 μl in each well. Plates were re-equilibrated to 37° C. for a few minutes.
# (§3) Cells were excited with an Argon laser at 488 nm, and emission was measured through a 510-570 nm bandwidth emission filter (FLIPR™, Molecular Devices, Sunnyvale, Calif.). Drug solution was added in a 50 μl volume to each well to give the desired final concentration. The peak increase in fluorescence intensity was recorded for each well. On each plate, four wells each served as negative (HBSS-HEPES buffer) and positive controls (standard agonists: BW245C (hDP); PGE2 (hEP1; hEP2/Gqs5; hEP3A/Gqi5; hEP4/Gqs5); PGF2. (hFP); carbacyclin (hIP); U-46619 (hTP), depending on receptor). The peak fluorescence change in each drug-containing well was then expressed relative to the controls.
# (§4) Compounds were tested in a high-throughput (HTS) or concentration-response (CoRe) format. In the HTS format, forty-four compounds per plate were examined in duplicates at a concentration of 10^−5 M. To generate concentration-response curves, four compounds per plate were tested in duplicates in a concentration range between 10^−5 and 10^−11 M. The duplicate values were averaged. In either, HTS or CoRe format each compound was tested on at least 3 separate plates using cells from different passages to give an n≧3.
# hEP2/Gqs5 = target: T2, hEP2/Gqs5 (Homo sapiens, UniProt P43116); assay: FLIPR calcium signal, HEK-293(EBNA) cells; format: cell-based; conditions: Table 1, first part; triplicate; read-out: functional data (EC50) hEP2
# T2 construct: expressed in transfected cells; host or cells: HEK-293(EBNA) cells
# Experimental: as §1, §2, §3, §4
# hDP/Gqs5 = target: T3, hDP/Gqs5 (Homo sapiens, UniProt Q13258); assay: FLIPR calcium signal, HEK-293(EBNA) cells; format: cell-based
# T3 construct: expressed in transfected cells; host or cells: HEK-293(EBNA) cells
# T3 sequence (Q13258 1-359): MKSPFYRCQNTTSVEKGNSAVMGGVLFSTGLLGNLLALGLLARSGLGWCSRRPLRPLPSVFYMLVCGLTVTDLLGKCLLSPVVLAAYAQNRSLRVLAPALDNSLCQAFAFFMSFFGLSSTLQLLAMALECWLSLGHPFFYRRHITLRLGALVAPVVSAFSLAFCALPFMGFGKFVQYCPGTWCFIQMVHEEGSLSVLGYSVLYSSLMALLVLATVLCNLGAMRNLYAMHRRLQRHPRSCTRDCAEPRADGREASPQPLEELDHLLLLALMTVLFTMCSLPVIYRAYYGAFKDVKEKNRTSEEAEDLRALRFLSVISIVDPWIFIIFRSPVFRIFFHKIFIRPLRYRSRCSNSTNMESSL
# Experimental: as §1, §2, §3, §4
# hFP = target: T4, hFP (Homo sapiens, UniProt P43088); assay: FLIPR calcium signal, HEK-293(EBNA) cells; format: cell-based
# T4 construct: expressed in transfected cells; host or cells: HEK-293(EBNA) cells
# Experimental: as §1, §2, §3, §4
# hEP3A/Gqi5 = target: T5, hEP3A/Gqi5 (Homo sapiens, UniProt P43115); assay: FLIPR calcium signal, HEK-293(EBNA) cells; format: cell-based
# T5 construct: expressed in transfected cells; host or cells: HEK-293(EBNA) cells
# T5 sequence (P43115 1-390): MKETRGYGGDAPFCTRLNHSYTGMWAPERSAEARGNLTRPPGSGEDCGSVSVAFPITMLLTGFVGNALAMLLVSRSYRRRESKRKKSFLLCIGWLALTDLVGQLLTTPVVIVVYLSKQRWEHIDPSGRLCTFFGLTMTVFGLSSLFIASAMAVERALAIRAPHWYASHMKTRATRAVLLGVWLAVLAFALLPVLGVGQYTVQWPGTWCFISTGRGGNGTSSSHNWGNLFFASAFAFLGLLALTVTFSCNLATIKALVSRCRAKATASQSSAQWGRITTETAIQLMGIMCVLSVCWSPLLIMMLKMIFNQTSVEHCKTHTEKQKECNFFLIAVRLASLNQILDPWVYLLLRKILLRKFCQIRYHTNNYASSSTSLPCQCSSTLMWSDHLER
# Experimental: as §1, §2, §3, §4
# hTP = target: T6, hTP (Homo sapiens, UniProt P21731); assay: FLIPR calcium signal, HEK-293(EBNA) cells; format: cell-based
# T6 construct: expressed in transfected cells; host or cells: HEK-293(EBNA) cells
# T6 sequence (P21731 1-343): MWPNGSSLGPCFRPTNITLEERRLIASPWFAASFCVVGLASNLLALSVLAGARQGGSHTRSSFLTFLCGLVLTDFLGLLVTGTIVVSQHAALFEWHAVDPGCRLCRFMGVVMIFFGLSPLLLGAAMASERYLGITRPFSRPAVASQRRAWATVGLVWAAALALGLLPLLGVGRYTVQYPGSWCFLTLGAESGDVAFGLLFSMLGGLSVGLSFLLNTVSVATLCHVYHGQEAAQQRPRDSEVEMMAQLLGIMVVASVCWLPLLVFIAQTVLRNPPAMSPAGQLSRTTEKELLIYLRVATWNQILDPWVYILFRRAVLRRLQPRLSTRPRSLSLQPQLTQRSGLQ
# Experimental: as §1, §2, §3, §4
# normotensive dogs [1] = assay: Intraocular pressure (IOP) in normotensive dogs; format: in vivo, dog; conditions: Canis lupus familiaris, topical, 120 h, dosing once daily for 5 days, read-out: maximum IOP decrease from baseline (percent)
# Experimental: (§5) (Z)-7-[(1R,2S,3R,5R)-5-Chloro-2-(3,5-dichloro-phenoxymethyl)-3-hydroxy-cyclopentyl]-hept-5-enoic acid (15b) was tested at multiple concentrations in normotensive dogs, dosing once daily for 5 days. At 0.05%, the maximum IOP decrease from baseline was 4.3 mmHg (30%) at 6 h; the maximum OSH score was 0.6 at 6 h. […] This compound was also tested in laser-induced hypertensive monkeys, using one single day dose. At 0.1%, the maximum IOP decrease from baseline was 6 mmHg (19%) at 6 h.
# (§6) (Z)-7-[(1R,2S,3R,5R)-5-Chloro-2-(3,5-dichloro-phenoxymethyl)-3-hydroxy-cyclopentyl]-hept-5-enoic acid isopropyl ester (42b) was tested in normotensive dogs at 0.05%, dosing once daily for 5 days. The maximum intraocular pressure (IOP) decrease from baseline was 3 mmHg (19%) at 6 h; the maximum ocular surface hyperemia (OSH) score was 0.6 at 74 h. This compound was also tested in laser-induced hypertensive monkeys, using one single day dose. At 0.01%, the maximum IOP decrease from baseline was 6 mmHg (16%) at 6 h.
# [2] = test system: laser-induced hypertensive monkeys; assay: Intraocular pressure (IOP) in laser-induced hypertensive monkeys; format: in vivo, monkey; conditions: Primates, topical, one single day dose, read-out: maximum IOP decrease from baseline (percent)
# Experimental: as §5, §6
# normotensive dogs [3] = assay: Ocular surface hyperemia (OSH) in normotensive dogs; format: in vivo, dog; parameters: maximum OSH score: scale not given here; conditions: dosing once daily for 5 days
# Experimental: as §5, §6
# normotensive dogs [4] = assay: Intraocular pressure (IOP) in normotensive dogs; format: in vivo, dog; conditions: Canis lupus familiaris, topical, 120 h, dosing once daily for 5 days, read-out: maximum IOP decrease from baseline (percent); remark: listed apart in the source
# T1 sequence (P35408 whole entry): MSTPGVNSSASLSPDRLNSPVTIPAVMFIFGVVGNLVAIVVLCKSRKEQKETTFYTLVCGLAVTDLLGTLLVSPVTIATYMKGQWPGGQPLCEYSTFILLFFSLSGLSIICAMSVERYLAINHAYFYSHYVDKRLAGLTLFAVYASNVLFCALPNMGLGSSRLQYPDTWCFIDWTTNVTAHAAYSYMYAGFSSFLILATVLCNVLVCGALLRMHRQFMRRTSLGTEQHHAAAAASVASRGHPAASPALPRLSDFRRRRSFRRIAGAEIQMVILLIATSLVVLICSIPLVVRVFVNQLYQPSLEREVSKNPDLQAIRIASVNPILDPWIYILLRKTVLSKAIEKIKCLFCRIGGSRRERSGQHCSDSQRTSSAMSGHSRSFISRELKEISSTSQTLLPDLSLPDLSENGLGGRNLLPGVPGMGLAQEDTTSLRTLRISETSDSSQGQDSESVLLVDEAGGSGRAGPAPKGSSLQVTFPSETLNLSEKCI
# T4 sequence (P43088 whole entry): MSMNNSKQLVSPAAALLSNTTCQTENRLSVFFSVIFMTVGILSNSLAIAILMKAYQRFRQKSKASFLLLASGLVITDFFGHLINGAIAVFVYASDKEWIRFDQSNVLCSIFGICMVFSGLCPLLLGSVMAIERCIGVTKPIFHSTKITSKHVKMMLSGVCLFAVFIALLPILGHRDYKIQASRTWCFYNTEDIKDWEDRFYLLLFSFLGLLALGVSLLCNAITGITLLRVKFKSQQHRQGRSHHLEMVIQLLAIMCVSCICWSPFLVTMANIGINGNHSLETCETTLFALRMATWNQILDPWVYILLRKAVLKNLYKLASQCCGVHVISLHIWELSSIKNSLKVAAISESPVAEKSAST
# T2 sequence (P43116 whole entry): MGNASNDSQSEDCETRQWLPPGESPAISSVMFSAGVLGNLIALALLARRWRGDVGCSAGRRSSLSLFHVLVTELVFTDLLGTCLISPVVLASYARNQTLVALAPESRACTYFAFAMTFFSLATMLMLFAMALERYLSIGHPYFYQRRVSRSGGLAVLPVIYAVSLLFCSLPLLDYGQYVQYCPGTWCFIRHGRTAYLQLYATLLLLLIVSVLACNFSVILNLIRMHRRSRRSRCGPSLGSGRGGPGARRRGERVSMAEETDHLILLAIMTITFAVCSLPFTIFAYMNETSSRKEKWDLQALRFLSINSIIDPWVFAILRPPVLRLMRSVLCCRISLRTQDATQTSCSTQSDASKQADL
smiles,measurement,setting,value
"COC(=O)CCC/C=C\C[C@@H]1[C@@H](COc2cc(Cl)cc(Cl)c2)[C@H](O)C[C@H]1Cl [Example 11, (Z)-7-[(1R,2S,3R,5R)-5-Chloro-2-(3,5-dichloro-phenoxymethyl)-3-hydroxy-cyclopentyl]-hept-5-enoic acid methyl ester]",EC50,"hEP4/Gqs5; Table 1, first part, triplicate, read-out: functional data (EC50) hEP4",> 10 µM
same,EC50,"hEP4/Gqs5; Table 1, second part, read-out: hEP4 flipr EC50",> 10 µM
same,EC50,hEP2/Gqs5,0.616 µM
same,EC50,"hDP/Gqs5; Table 1, first part, triplicate, read-out: functional data (EC50) hDP",> 10 µM
same,EC50,"hDP/Gqs5; Table 1, second part, quantity not given, values match functional data (EC50) of first part, read-out: Other Receptors hDP",> 10 µM
same,EC50,"hFP; Table 1, first part, triplicate, read-out: functional data (EC50) hFP",> 10 µM
same,EC50,"hFP; Table 1, second part, quantity not given, values match functional data (EC50) of first part, read-out: Other Receptors hFP",> 10 µM
same,EC50,"hEP3A/Gqi5; Table 1, first part, data represents a single experiment, read-out: functional data (EC50) hEP3A*",9.87 µM
same,EC50,"hEP3A/Gqi5; Table 1, second part, quantity not given, values match functional data (EC50) of first part, read-out: Other Receptors hEP3",9.87 µM
same,EC50,"hTP; Table 1, first part, triplicate, read-out: functional data (EC50) hTP",> 10 µM
same,EC50,"hTP; Table 1, second part, quantity not given, values match functional data (EC50) of first part, read-out: Other Receptors hTP",> 10 µM
"O=C(O)CCC/C=C\C[C@@H]1[C@@H](COc2ccc(CO)cc2)[C@H](O)C[C@H]1Cl [Example 43, (Z)-7-[(1R,2S,3R,5R)-5-Chloro-3-hydroxy-2-(4-hydroxymethyl-phenoxymethyl)-cyclopentyl]-hept-5-enoic acid]",inhibition in vivo at 0.1 %,normotensive dogs [1],20%
same,inhibition in vivo at 0.1 %,[2],6%
same,maximum OSH score,normotensive dogs [3]; 0.1%,0.6
same,time of maximum OSH score,normotensive dogs [3]; 0.1%,98 h
"CC(C)OC(=O)CCC/C=C\C[C@@H]1[C@@H](COc2cc(Cl)cc(Cl)c2)[C@H](O)C[C@H]1Cl [Example 67, (Z)-7-[(1R,2S,3R,5R)-5-Chloro-2-(3,5-dichloro-phenoxymethyl)-3-hydroxy-cyclopentyl]-hept-5-enoic acid isopropyl ester]",inhibition in vivo at 0.05 %,normotensive dogs [1]; 0.05%,19%
same,inhibition in vivo at 0.01 %,[2]; 0.01%,16%
same,maximum OSH score,normotensive dogs [3]; 0.05%,0.6
same,time of maximum OSH score,normotensive dogs [3]; 0.05%,74 h
"CC(C)OC(=O)CCC/C=C\C[C@@H]1[C@@H](COc2cc(C(F)(F)F)cc(C(F)(F)F)c2)[C@H](O)C[C@H]1Cl [Example 68, (Z)-7-[(1R,2S,3R,5R)-2-(3,5-Bis-trifluoromethyl-phenoxymethyl)-5-chloro-3-hydroxy-cyclopentyl]-hept-5-enoic acid isopropyl ester]",inhibition in vivo at 0.03 %,[2]; 0.03%,11%
same,inhibition in vivo at 0.03 %,normotensive dogs [4],14%
same,maximum OSH score,normotensive dogs [3]; 0.03%,0.7
same,time of maximum OSH score,normotensive dogs [3]; 0.03%,78 h
"CC(C)OC(=O)CCC/C=C\C[C@@H]1[C@@H](COc2cccc(C(F)(F)F)c2)[C@H](O)C[C@H]1Cl [Example 69, (Z)-7-[(1R,2S,3R,5R)-5-Chloro-3-hydroxy-2-(3-trifluoromethyl-phenoxymethyl)-cyclopentyl]-hept-5-enoic acid isopropyl ester]",inhibition in vivo at 0.1 %,normotensive dogs [1],19%
same,inhibition in vivo at 0.1 %,[2],14%
same,maximum OSH score,normotensive dogs [3]; 0.1%,0.6
same,time of maximum OSH score,normotensive dogs [3]; 0.1%,50 h
"Cc1cc(C)cc(OC[C@@H]2[C@@H](C/C=C\CCCC(=O)OC(C)C)[C@H](Cl)C[C@H]2O)c1 [Example 70, (Z)-7-[(1R,2S,3R,5R)-5-Chloro-2-(3,5-dimethyl-phenoxymethyl)-3-hydroxy-cyclopentyl]-hept-5-enoic acid isopropyl ester]",inhibition in vivo at 0.1 %,normotensive dogs [1],30%
same,inhibition in vivo at 0.1 %,[2],23%
same,maximum OSH score,normotensive dogs [3]; 0.1%,0.9
same,time of maximum OSH score,normotensive dogs [3]; 0.1%,74 h
"CC(C)OC(=O)CCC/C=C\C[C@@H]1[C@@H](COc2ccc(CO)cc2)[C@H](O)C[C@H]1Cl [Example 71, (Z)-7-[(1R,2S,3R,5R)-5-Chloro-3-hydroxy-2-(4-hydroxymethyl-phenoxymethyl)-cyclopentyl]-hept-5-enoic acid isopropyl ester]",inhibition in vivo at 0.1 %,normotensive dogs [1],33%
same,inhibition in vivo at 0.1 %,[2],16%
same,maximum OSH score,normotensive dogs [3]; 0.1%,0.6
same,time of maximum OSH score,normotensive dogs [3]; 0.1%,30 h
